# Reference: US20070191452A1, “USE OF BENZO-HETEROARYL SULFAMIDE DERIVATIVES FOR THE TREATMENT OF PAIN” (priority 2006, published 2007)
# Columns and labels:
# Format in all cases: in vivo
# [1] = system: Taxol induced mechanical allodynia in the rat hind paw; assay: Taxol-Induced Peripheral Neuropathy (von Frey paw withdrawal threshold); conditions: 100 mg/kg, p.o. daily for 12 days with Taxol 2 mg/kg i.p.; day 12; not statistically different from baseline (16.42±2.14 g)
# From the text: Peripheral neuropatheis are chronic conditions that arise when nerves are damaged by trauma, disease, metabolic insufficiency or by certain drugs and toxins. The sensory disturbances associated with chemotherapeutic agents, such as paclitaxel (Taxol), range from mild tingling to spontaneous burning, typically in the hands and feet. Symptoms become more intense with continued therapy and can lead to weakness, ataxia, numbness and pain. Taxol-induced peripheral neuropathy in rats have therefore been used as a model of peripheral neuropathies in humans.
# Male Sprague-Dawley rats (Harlan) were randomly assigned to two treatment groups: vehicle (0.5% hypromellose, p.o.) and Compound #1 (100 mg/kg, p.o). All rats were injected with Taxol (2 mg/kg, i.p.) on days 1, 3, 5 and 7. At the same time, rats received daily oral gavage of vehicle or Compound #1, starting the day of the first Taxol injection and continuing for 12 days.
# All animals were acclimated to the allodynia procedure 2-3 days prior to testing allowing the rats to habituate to the testing devices. Rats underwent Von Frey hair testing as a measure of mechanical allodynia at baseline and on days 5 and 12 post-Taxol injection. Tactile sensitivity was measured using calibrated filaments touched to the plantar surfaces of the affected limb. […]
# [2] = system: formalin-induced inflammatory-mediated pain response (hind-paw licking); assay: Mouse Formalin Assay; conditions: i.p.; for acute response, decrease from control: acute phase
# Procedure: The mouse formalin test is an acute and chronic model for testing the ability of a test compound for the treatment of pain.
# In the Mouse Formalin Test, 0.5% formalin was injected s.c. into the plantar region of the hind-paw of adult male mice to induce an inflammatory-mediated pain response. Pain was expressed as licking of the injected area in a bi-modal manner—acute and chronic phase. The acute phase occurred immediately and lasted approximately 10-15 min post-injection, representing direct stimulation of pain fibers. Licking behavior resumes approximately 10 mins later (˜20 min post injection) and lasted 10-15 min, representing the chronic phase due to centralized sensitization in dorsal horn neurons and hypothesized to be caused by the release of inflammatory mediators such as cytokines.
# Activity in the acute phase of the formalin test is an indicator of acute pain believed to correlate with peripheral pain pathways.
# [3] = system: mechanical (tactile) allodynia after L5 nerve ligation; assay: Rat Chung Model of Neuropathic Pain (L5 nerve ligation, von Frey mechanical allodynia)
# Procedure: The rat Chung model is an assay used in determining whether a compound is useful for the treatment of neuropathic pain (Kim and Chung, 1994; Chaplan et al., 1994).
# In this study, male Sprague Dawley rats (145-165 g; Harlan) were anesthetized and the L5 nerve was isolated and ligated with silk suture material resulting in mechanical allodynia. Two weeks post-ligation, rats were dosed acutely with vehicle (an aqueous solution of 0.5% methylcellulose) or Compound #1 at 15, 30, 60, 120 or 240 mg/kg, p.o. Mechanical (tactile) allodynia was quantified by recording the pressure at which the affected paw withdrew from a graded stimulus (von Frey hairs) at 30 min, 1, 2 and 4 h post-dosing. Data were normalized and results are presented as % MPE (maximum […] effect) of the drug.
# [4] = 107 mg/kg, 15 min prior to formalin injection, p<0.01
smiles,measurement,setting,value
"NS(=O)(=O)NCc1csc2ccccc12 [Compound #1, N-(benzo[b]thien-3-ylmethyl)-sulfamide]",withdrawal force,[1],14.32 ± 5.45 g
same,"acute response, decrease from control","[2]; 53 mg/kg, p<0.05",32%
same,"chronic phase response, decrease from control","[2]; 53 mg/kg, p<0.01",67%
same,"acute response, decrease from control",[2]; [4],52%
same,"chronic phase response, decrease from control",[2]; [4],88%
same,improvement in the allodynic response (% MPE),"[3]; 240 mg/kg, p.o., at 1 h post-dosing",80%
same,ED50,"[3]; Rattus norvegicus, po, at 1 h post-dosing, n=5 rats/dose, read-out: acute oral ED50",169 mg/kg
same,time of peak efficacy post-dosing,"[3]; p.o., efficacy observed at 30 min, gone by 4 h",1 h
